Experimental data: patent publication US4493845A, “Antibiotic AM-3603” (Kitasato Kenkyusho, priority 1980, dated 1985)
Converted amounts (≈) assume the structure as drawn. Like-named read-outs stand apart in the source and are kept apart here.

Legend:
Type in all cases: cell-based
Botrytis cinerea = assay: Comparison of anti-phytopathogenic activity, MIC; details: Glucosepotato agar, 2-3 days
Piricularia oryzae = assay: microbe, parasite or virus in culture; details: Glucosepotato agar, 2-3 days
Alternaria kikuchiana = assay: Comparison of anti-phytopathogenic activity, MIC; details: Glucosepotato agar, 2-3 days
Pellicularia sasakii = assay: Comparison of anti-phytopathogenic activity, MIC
Sclerotinia cinerea = assay: Comparison of anti-phytopathogenic activity, MIC; details: Glucosepotato agar, 2-3 days
[1] = B, laboratory stock culture, Glucosepotato agar, 2-3 days
[2] = A, isolate from infected plant, Glucosepotato agar, 2-3 days

Row | Molecule | MIC (Botrytis cinerea; Botrytis cinerea, A, isolate from infected plant) [µg/mL] | MIC (Botrytis cinerea; Botrytis cinerea, B, laboratory stock culture) [µg/mL] | MIC (Piricularia oryzae; A, isolate from infected plant) [µg/mL] | MIC (Piricularia oryzae; B, laboratory stock culture) [µg/mL] | MIC (Alternaria kikuchiana; Alternaria kikuchiana, A, isolate from infected plant) [µg/mL] | MIC (Alternaria kikuchiana; Alternaria kikuchiana, B, laboratory stock culture) [µg/mL] | MIC (Pellicularia sasakii) [µg/mL] | MIC (Pellicularia sasakii; [1]) [µg/mL] | MIC (Sclerotinia cinerea; Sclerotinia, A, isolate from infected plant) [µg/mL] | MIC (Sclerotinia cinerea; Sclerotinia, B, laboratory stock culture) [µg/mL] | MIC (Botrytis cinerea; A, isolate from infected plant) [µg/mL] | MIC (Botrytis cinerea; B, laboratory stock culture) [µg/mL] | MIC (Alternaria kikuchiana; A, isolate from infected plant) [µg/mL] | MIC (Alternaria kikuchiana; B, laboratory stock culture) [µg/mL] | MIC (Pellicularia sasakii; [2]) [µg/mL] | MIC (Sclerotinia cinerea; A, isolate from infected plant) [µg/mL] | MIC (Sclerotinia cinerea; B, laboratory stock culture) [µg/mL]
1 | CN(CCC(N)CC(=O)NC1C=CC(n2ccc(N)nc2=O)OC1C(=O)O)C(=N)N (stereo not shown) [Blasticidin S] | 50 (≈ 118 µM) | 100 (≈ 237 µM) | > 100 | 25 (≈ 59.2 µM) | 50 (≈ 118 µM) | 12.5 (≈ 29.6 µM) | > 100 | > 100 | 50 (≈ 118 µM) | 25 (≈ 59.2 µM) |  |  |  |  |  |  | 
2 | C[C@@H](N)C(=O)N[C@H]1CO[C@H](O)[C@H](N)[C@H]1O [Prumycin] |  |  | > 100 | 100 (≈ 456 µM) |  |  |  | > 100 |  |  | 100 (≈ 456 µM) | 50 (≈ 228 µM) | > 100 | 50 (≈ 228 µM) | > 100 | 1.56 (≈ 7.12 µM) | 6.25 (≈ 28.5 µM)
3 | Venturicidin |  |  | < 0.03 | < 0.03 |  |  |  | > 25 |  |  |  | > 25 |  | > 25 | 1.56 | 0.78 | 0.78
